Assay results from publication PMC12511766 (Frontiers in Pharmacology, 2025).
Where two headings read alike, the source gives them in different places.

Assays:
[1] = Adverse events (NCI CTCAE v5.0), Phase Ib study; type: in vivo, human; conditions: for Patients with AE leading to discontinuation of the drug / Patients with AE leading to dose interruption of the drug / Patients with AE leading to dose reduction of the drug / Patients with AE related to the drug: all enrolled patients
Description: Safety assessments consisted of monitoring and recording adverse events, including serious adverse events and adverse events of special interest, performing protocol-specified safety laboratory assessments, measuring protocol-specified vital signs, and conducting other protocol-specified tests that are deemed critical to the safety evaluation of the study. The adverse event severity grading scale for the NCI Common Terminology Criteria for Adverse Events (CTCAE) v5.0 was used for assessing adverse event severity. If daily dosing of ipatasertib was not tolerated, dosing with food might be used to alleviate gastrointestinal symptoms. […] For ipatasertib, with a starting dose of 300 mg, the first dose reduction was to 200 mg and the second down to 100 mg.

CYP3A [2] = conditions: 2021, cited from earlier work
[3] = Steady-state plasma PK of ipatasertib and M1 (LC-MS/MS, noncompartmental analysis), Phase Ib study; type: in vivo, human; conditions: for Tmax: 300 mg, median (range)
Experimental: From Cycle 2 Day 1 onward, ipatasertib was taken orally and daily on Days 1–21 of each 28-day cycle. […] Additionally, fulvestrant 500 mg was given via intramuscular (IM) injection on Days 1 and 15 of Cycle 1, and then on Day 1 of each subsequent 28-day cycle. […] The initial safety follow-up extended through at least Day 15 of Cycle two for all patients. […] PK samples for ipatasertib and its major metabolite, M1 (G-037720), were collected at specified time points: 15 min pre-dose, 0.5, 1, 2, 3, 4, 6 h post-dose on Day 1 of Cycle 1, and Day 15 of Cycle 1, as well as 15 min pre-dose on Day 15 of Cycle 2 and 15 min pre-dose and 2 h post-dose on Day 15 of Cycle 3. […] The plasma concentrations of ipatasertib and its metabolite M1 was determined using a previously reported, validated liquid chromatography-tandem mass spectrometry assay (LC-MS/MS) ([Sutaria et al., 2022]). […] The sample analyses were performed at Labcorp Early Drug Development Laboratories, Inc. (Madison, WI, Unitd States) using a Shimadzu LC instrument equipped with an Agilent Polaris C8-A column (2.0 × 50 mm, 5 μm) interfaced with a Sciex API 4000 mass spectrometer operated in positive electrospray ionization mode. […] Noncompartmental PK analysis (NCA) was performed using the commercial software Phoenix WinNonlin (Certara Unitd States, Inc., Princeton, NJ, Unitd States, Version 8.1) to characterize the PK parameters of ipatasertib and M1 including maximal concentration (Cmax), time to maximal concentration (Tmax), area under the curve from time 0 to the last measurable concentration (AUC0-t). […] Non-compartmental PK analyses were performed using Phoenix(R) WinNonlin (Version 8.3, Certara). […] A linear mixed model with a fixed effect for treatment and a random effect for patients was used on the natural log-transformed PK parameters.

[4] = cited from earlier work
CYP3A [5] = test system: CYP3A; set-up: method as in Jing et al., 2022; conditions: ipatasertib 300 mg in the presence of palbociclib; ref Jing et al., 2022; cited from earlier work
CYP3A [6] = conditions: 2021, cited from earlier work; remark: listed apart in the source
[7] = Palbociclib predose plasma concentrations (LC-MS/MS), Phase Ib study; type: in vivo, human; conditions: for Palbociclib plasma concentration, C2D15 predose / Palbociclib plasma concentration, C1D15 predose / Palbociclib plasma concentration, C3D15 predose: 125 mg, Geomean (geoCV%)
[8] = Palbociclib PK parameters estimated with established popPK model; type: in vivo, human
[9] = 300 mg QD with 125 mg palbociclib and fulvestrant vs alone
[10] = C1D15 (with palbociclib and fulvestrant) / C1D1 (ipatasertib alone)
[11] = human, plasma, oral, C1D1, ipatasertib 300 mg QD alone, N = 9, geometric mean (%geoCV)
[12] = ipatasertib coadministered with palbociclib and fulvestrant vs ipatasertib alone
[13] = ipatasertib 100 mg single dose with itraconazole, ref Sane et al.
[14] = palbociclib administered alone, ref U.S. Food and Drug Administration, 2014
[15] = additional patients for safety evaluation, N 9

Structure (SMILES): C[C@]12CC[C@@H]3c4ccc(O)cc4C[C@@H](CCCCCCCCC[S+]([O-])CCCC(F)(F)C(F)(F)F)[C@H]3[C@@H]1CC[C@@H]2O (some centres unmarked) [Fulvestrant]
- Patients with AE leading to discontinuation of the drug [1]: 0 Number of patients (%)
- Patients with AE leading to dose interruption of the drug [1]: 5 (25%) Number of patients (%)
- Patients with AE leading to dose reduction of the drug [1]: 0 Number of patients (%)
- Patients with AE related to the drug [1]: 16 (80%) Number of patients (%)
- AE considered related to the drug: anemia ([1]; triplet regimen, 20 patients): 10%
- AE considered related to the drug: asthenia ([1]; triplet regimen, 20 patients): 15%
- AE considered related to the drug: hot flush ([1]; triplet regimen, 20 patients): 10%
- CYP3A inhibition / induction classification (CYP3A [2]; ref U.S. Food and Drug Administration): not an inhibitor or inducer of CYP3A

Structure (SMILES): CC(C)NC[C@@H](C(=O)N1CCN(c2ncnc3c2[C@H](C)C[C@H]3O)CC1)c1ccc(Cl)cc1 [Ipatasertib]
- Increase in AUC0-24,ss [3, 9]: 1.68 fold
- Increase in Cmax,ss [3, 9]: 1.49 fold
- AUC0-24,ss at 300 mg in presence of palbociclib relative to 400 mg in other clinical studies ([3]; 3,637 vs 2,920 ng*hr/mL): about 1.25 times
- AUC0-24,ss geometric mean ratio (GMR) (90% CI) [3, 10]: 1.68 (1.41, 2.00)
- Cmax,ss geometric mean ratio (GMR) (90% CI) [3, 10]: 1.49 (1.18, 1.88)
- Tmax ([3]; human, plasma, oral, C1D1, ipatasertib 300 mg QD alone): 1 h
- Tmax ([3]; human, plasma, oral, C1D15, ipatasertib 300 mg QD with palbociclib and fulvestrant): 1.9 h
- AUC0-24,ss [3, 11]: 2170 ng·h/mL
- Cmax [3, 11]: 294 ng/mL
- Increase in AUC0-24,ss [3, 12]: 68%
- Increase in Cmax,ss [3, 12]: 49%
- Patients with AE leading to discontinuation of the drug [1]: 1 (5%) Number of patients (%)
- Patients with AE leading to dose interruption of the drug [1]: 16 (80%) Number of patients (%)
- Patients with AE leading to dose reduction of the drug [1]: 9 (45%) Number of patients (%)
- Patients with AE related to the drug [1]: 20 (100%) Number of patients (%)
- AE considered related to the drug: anemia ([1]; triplet regimen, 20 patients): 30%
- AE considered related to the drug: diarrhea ([1]; triplet regimen, 20 patients): 75%
- AE considered related to the drug: fatigue ([1]; triplet regimen, 20 patients): 25%
- AE considered related to the drug: nausea ([1]; triplet regimen, 20 patients): 70%
- AE considered related to the drug: neutropenia ([1]; triplet regimen, 20 patients): 30%
- AE considered related to the drug: neutrophil count decreased ([1]; triplet regimen, 20 patients): 25%
- AE considered related to the drug: platelet count decreased ([1]; triplet regimen, 20 patients): 30%
- AE considered related to the drug: rash ([1]; triplet regimen, 20 patients): 35%
- AE considered related to the drug: vomiting ([1]; triplet regimen, 20 patients): 45%
- Effective half-life ([4]; background statement, no reference printed with the sentence): approximately 24 h
- AUC0-24,ss ([4]; ipatasertib 400 mg in other clinical studies, ref Yoshida et al., 2021): 2,920 ng*hr/mL
- Dose proportionality of exposure ([4]; over the range of 200–800 mg, no reference printed with the sentence): dose-proportional
- CYP3A inhibition classification (CYP3A [2]; in vitro, ref Malhi et al.): mild to moderate CYP3A inhibitor
- CYP3A4 substrate classification (CYP3A [2]; ref Sane et al.): sensitive substrate
- PBPK-predicted increase in AUC (CYP3A [5]): 48%
- PBPK-predicted increase in Cmax (CYP3A [5]): 23%
- Increase in AUC0-∞ with itraconazole (CYP3A [6]; [13]): 5.45 fold
- Increase in Cmax with itraconazole (CYP3A [6]; [13]): 2.26 fold
- Increase in AUC0-∞ of midazolam (CYP3A [6]; single dose of ipatasertib 600 mg with midazolam, ref Malhi et al.): 2.22 fold

Structure (SMILES): CC(=O)c1c(C)c2cnc(Nc3ccc(N4CCNCC4)cn3)nc2n(C2CCCC2)c1=O [Palbociclib]
- Patients with AE leading to discontinuation of the drug [1]: 1 (5%) Number of patients (%)
- Patients with AE leading to dose interruption of the drug [1]: 13 (65%) Number of patients (%)
- Patients with AE leading to dose reduction of the drug [1]: 10 (50%) Number of patients (%)
- Patients with AE related to the drug [1]: 20 (100%) Number of patients (%)
- AE considered related to the drug: anemia ([1]; triplet regimen, 20 patients): 40%
- AE considered related to the drug: asthenia ([1]; triplet regimen, 20 patients): 25%
- AE considered related to the drug: diarrhea ([1]; triplet regimen, 20 patients): 30%
- AE considered related to the drug: nausea ([1]; triplet regimen, 20 patients): 40%
- AE considered related to the drug: neutropenia ([1]; triplet regimen, 20 patients): 45%
- AE considered related to the drug: neutrophil count decreased ([1]; triplet regimen, 20 patients): 40%
- AE considered related to the drug: platelet count decreased ([1]; triplet regimen, 20 patients): 30%
- AE considered related to the drug: stomatitis ([1]; triplet regimen, 20 patients): 25%
- AUC0-24,ss [4, 14]: 1982 ng·h/mL
- Cmax,ss [4, 14]: 116 ng/mL
- Palbociclib plasma concentration, C2D15 predose ([7]; additional patients for safety evaluation, N 6): 83.2 (19.4) ng/mL
- Palbociclib plasma concentration, C1D15 predose [7, 15]: 73.8 (20.7) ng/mL
- Palbociclib plasma concentration, C3D15 predose [7, 15]: 67.5 (51.0) ng/mL
- Palbociclib plasma concentration, C1D15 predose ([7]; ipatasertib run-in group, N 9): 69.9 (57.2) ng/mL
- Palbociclib plasma concentration, C2D15 predose ([7]; ipatasertib run-in group, N 10): 76.9 (44.9) ng/mL
- Palbociclib plasma concentration, C3D15 predose ([7]; ipatasertib run-in group, N 10): 71.5 (43.5) ng/mL
- Palbociclib plasma concentration, C2D15 predose ([7]; total, N 16): 79.2 (36.4) ng/mL
- Palbociclib plasma concentration, C1D15 predose ([7]; total, N 18): 71.8 (40.8) ng/mL
- Palbociclib plasma concentration, C3D15 predose ([7]; total, N 19): 69.6 (45.7) ng/mL
- Cmin ([7]; palbociclib in this study with ipatasertib and fulvestrant (summary of Table 3)): approximately 70 ng/mL
- AUC over 24 h dosing interval at steady state ([8]; human, plasma, oral, 125 mg, read-out: AUC0-24,ss (popPK-estimated)): 2600 ng·h/mL
- Cmax,ss (popPK-estimated) ([8]; palbociclib 125 mg with ipatasertib and fulvestrant, geometric mean (%CV)): 124 ng/mL
